Test results from patent US7799803B2, “Hydroxamic acid compounds and methods of use thereof” (The Trustees of Columbia University in the City of New York, priority 2003, dated 2010).
Where two headings read alike, the source gives them in different places.

Tests used:
[1] = system: human bladder carcinoma cell line, T24; assay: T24 cell-based proliferation assay; conditions: T-24, T24 cells treated 72 hours, DNA quantitated with bisbenzamide, Table 3, read-out: Cell Growth Inhbition, IC50
Method: Proliferation The novel compounds of the present invention were tested for their ability to inhibit growth of the human bladder carcinoma cell line, T24. Cells were treated with compounds for 72 hours, lysed by freeze/thaw to expose the DNA, and then the DNA was quantitated using the intercalating dye, bisbenzamide (Sigma). Fluorescent intensity (ex 350λ em 460λ) was directly proportional to the number of cells per well. Fluorescence values from vehicle-treated cells were determined and used as 100%.

[2] = biological target: T1, histone deacetylase, subtype 1 (HDAC1) (Homo sapiens, UniProt Q13547); assay: HDAC1-Flag in vitro deacetylation assay; type: biochemical
T1 construct: Flag; made in house
Method: Novel compounds were tested for their ability to inhibit histone deacetylase, subtype 1 (HDAC1) using an in vitro deacetylation assay. The enzyme source for this assay was an epitope-tagged human HDAC1 complex immuno-purified from stably expressing mammalian cells. The substrate consisted of a commercial product containing an acetylated lysine side chain (Biomol, Plymouth Meeting, Pa.). Upon deacetylation of the substrate by incubation with the purified HDAC1 complex, a fluorophore is produced that is directly proportional to the level of deacetylation. Using a substrate concentration at the Km for the enzyme preparation, the deacetylation assay was performed in the presence of increasing concentrations of novel compounds to semi-quantitatively determine the concentration of compound required for 50% inhibition (IC50) of the deacetylation reaction.

[3] = epitope-tagged human HDAC1 complex, substrate concentration at Km, Table 2, read-out: HDAC Inhibition IC50
[4] = Table 4, additional compounds, n = 2, read-out: HDAC inhibition IC50

T1 sequence (Q13547 whole entry): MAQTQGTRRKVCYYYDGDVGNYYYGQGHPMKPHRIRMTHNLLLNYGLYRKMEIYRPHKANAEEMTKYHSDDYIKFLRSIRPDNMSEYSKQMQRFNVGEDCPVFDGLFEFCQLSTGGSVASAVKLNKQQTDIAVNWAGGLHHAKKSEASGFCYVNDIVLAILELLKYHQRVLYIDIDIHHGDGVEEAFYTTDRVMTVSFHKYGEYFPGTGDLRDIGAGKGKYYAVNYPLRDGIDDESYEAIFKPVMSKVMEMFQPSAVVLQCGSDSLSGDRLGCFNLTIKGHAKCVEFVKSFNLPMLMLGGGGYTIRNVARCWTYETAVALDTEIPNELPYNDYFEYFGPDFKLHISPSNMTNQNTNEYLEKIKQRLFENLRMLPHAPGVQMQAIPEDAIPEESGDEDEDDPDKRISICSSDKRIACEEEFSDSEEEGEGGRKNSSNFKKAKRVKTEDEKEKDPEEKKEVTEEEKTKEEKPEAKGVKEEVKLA

| Compound | IC50 [1] [nM] | IC50 [2, 3] [nM] | IC50 [2, 4] [nM] |
| --- | --- | --- | --- |
| O=C(CCCCC[C@H](NC(=O)c1ccc2ccccc2n1)C(=O)NCc1ccccc1)NO [Compound 3] | 1700 | 52.7 |  |
| O=C(CCCCC[C@H](NC(=O)OCc1ccccc1)C(=O)NCc1ccccc1)NO [Compound 2] | 1400 | 37.4 |  |
| O=C(CCCCC[C@H](NC(=O)c1ccccc1)C(=O)NCc1ccccc1)NO [Compound 4] | 3200 | 73 |  |
| O=C(CCCCCC(C(=O)NCc1ccccc1)C(=O)NCc1ccccc1)NO [Compound 12] |  |  | 156 ± 22.6 |
| O=C(CCCCC[C@H](NC(=O)c1ccc2ccccc2n1)C(=O)Nc1cccc2cccnc12)NO [Compound 10] | 1400 | 41.8 |  |
| O=C(CCCCCC(C(=O)NCCc1ccccc1)C(=O)NCCc1ccccc1)NO [Compound 13] |  |  | 186 ± 21.9 |
| O=C(CCCCC[C@H](NC(=O)c1cccnc1)C(=O)NCc1ccccc1)NO [Compound 5] | 9200 | 150 |  |
| O=C(CCCCC[C@H](NC(=O)c1cccnc1)C(=O)Nc1ccc2ncccc2c1)NO [Compound 8] | 1800 | 1.6 |  |

The remaining lines, values ahead:

| IC50 [1] [nM] | IC50 [2, 3] [nM] | IC50 [2, 4] [nM] | Compound |
| --- | --- | --- | --- |
| 300 | 12.7 |  | O=C(CCCCC[C@H](NC(=O)c1ccccc1)C(=O)Nc1cccc2cccnc12)NO [Compound 11] |
| 200 | 1.8 |  | O=C(CCCCC[C@H](NC(=O)c1ccccc1)C(=O)Nc1ccc2ncccc2c1)NO [Compound 6b, (2S)-2-BENZOYLAMINO-OCTANEDIOIC ACID 8-HYDROXYAMIDE 1-QUINOLIN-6-YLAMIDE] |
| 600 | 54.5 |  | O=C(CCCCC[C@H](NC(=O)c1ccc2ccccc2n1)C(=O)Nc1ccc2ncccc2c1)NO [Compound 7] |
| 400 | 4.1 |  | O=C(CCCCC[C@H](NC(=O)c1cccnc1)C(=O)Nc1cccc2cccnc12)NO [Compound 9] |
| 200 | 5.9 |  | O=C(CCCCC[C@H](NC(=O)OCc1ccccc1)C(=O)Nc1ccc2ncccc2c1)NO [Compound 6a, (S)-[6-HYDROXYCARBAMOYL-1-(QUINOLIN-6-YLCARBAMOYL)-HEXYL]-CARBAMIC ACID BENZYL ESTER] |
